# Test results reported in patent US20240254118A1, “PRMT5 INHIBITORS AND USES THEREOF” (Gilead Sciences, Inc., priority 2022, published 2024).
# Experiments:
# [1] = test system: HCT116 MTAP-deleted cells; experiment: Cell viability assay (CellTiter-Glo, 7 days), HCT116 MTAP-deleted; details: Homo sapiens, HCT-116, 168 h
# [2] = test system: SDMA signal (PRMT5 inhibition) in HCT116 MTAP-deleted cells; experiment: Symmetric di-methyl arginine image-based high content screen assay (SDMA assay), HCT116 MTAP-deleted; format: cell-based; details: SDMA assay; for EC50: Homo sapiens, HCT-116, 72 h, 3 days of treatment, cell line not given, taken as HCT116 MTAP-deleted, read-out: EC50 (SDMA assay); for EC50 selectivity (SDMA assay): taken as HCT116 WT versus MTAP-deleted
# Outline: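 HCT116 MTAP-deleted cells treated with compound until Day 3, then formalin-fixed, permeabilized and immunostained for SDMA, with DAPI nuclear counterstain. Imaged by high-content microscopy; SDMA read-out is mean Alexa 488 intensity per DAPI-defined cell, reflecting PRMT5 inhibition.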
SMILES,EC50 [2] [nM],EC50 selectivity (SDMA assay) [2],CC50 [1] [nM]
"CN(C(=O)C1CC1)N(Cc1ccc(C(F)(F)F)cn1)C(=O)c1ccc2nc(N)c3cnn(C)c3c2c1 [Example 111, 4-amino-N′-(cyclopropanecarbonyl)-N′,1-dimethyl-N-[[5-(trifluoromethyl)-2-pyridyl]methyl]pyrazolo[4,3-c]quinoline-8-carbohydrazide]",< 1,129,< 100
"CN(C(=O)OC1CCC1)N(Cc1ccc(C(F)(F)F)cn1)C(=O)c1ccc2nc(N)c3cnn(C)c3c2c1 [Example 112, cyclobutyl N-[(4-amino-1-methyl-pyrazolo[4,3-c]quinoline-8-carbonyl)-[[5-(trifluoromethyl)-2-pyridyl]methyl]amino]-N-methyl-carbamate]",< 1,46,< 100
"CC(=O)N(c1ncccn1)N(Cc1ccc(C(F)(F)F)cn1)C(=O)c1ccc2nc(N)c3cnn(C)c3c2c1 [Example 114, N′-acetyl-4-amino-1-methyl-N′-pyrimidin-2-yl-N-[[5-(trifluoromethyl)-2-pyridyl]methyl]pyrazolo[4,3-c]quinoline-8-carbohydrazide]",< 1,32,< 100
"CC(=O)N(CC(F)F)N(Cc1ccc(C(F)(F)F)cn1)C(=O)c1ccc2nc(N)c3cnn(C)c3c2c1 [Example 115, N′-acetyl-4-amino-N′-(2,2-difluoroethyl)-1-methyl-N-[[5-(trifluoromethyl)-2-pyridyl]methyl]pyrazolo[4,3-c]quinoline-8-carbohydrazide]",1 to 5,382,100 to 1000
"CC(=O)N(CC(F)(F)F)N(Cc1ccc(C(F)(F)F)cn1)C(=O)c1ccc2nc(N)c3cnn(C)c3c2c1 [Example 116, N′-acetyl-4-amino-1-methyl-N′-(2,2,2-trifluoroethyl)-N-[[5-(trifluoromethyl)-2-pyridyl]methyl]pyrazolo[4,3-c]quinoline-8-carbohydrazide]",1 to 5,189,100 to 1000
"CN(C(=O)c1ccccn1)N(Cc1ccc(C(F)(F)F)cn1)C(=O)c1ccc2nc(N)c3cnn(C)c3c2c1 [Example 118, 4-amino-N′,1-dimethyl-N′-picolinoyl-N-((5-(trifluoromethyl)pyridin-2-yl)methyl)-1H-pyrazolo[4,3-c]quinoline-8-carbohydrazide]",< 1,96,< 100
"CC(C)C(=O)N(C)N(Cc1ccc(C(F)(F)F)cn1)C(=O)c1ccc2nc(N)c3cnn(C)c3c2c1 [Example 120, 4-amino-N′-isobutyryl-N′,1-dimethyl-N-((5-(trifluoromethyl)pyridin-2-yl)methyl)-1H-pyrazolo[4,3-c]quinoline-8-carbohydrazide]",< 1,542,< 100
"CN(C(=O)C(C)(C)F)N(Cc1ccc(C(F)(F)F)cn1)C(=O)c1ccc2nc(N)c3cnn(C)c3c2c1 [Example 121, 4-amino-N′-(2-fluoro-2-methylpropanoyl)-N′,1-dimethyl-N-((5-(trifluoromethyl)pyridin-2-yl)methyl)-1H-pyrazolo[4,3-c]quinoline-8-carbohydrazide]",< 1,106,< 100
"CN(C(=O)N1CCC1)N(Cc1ccc(C(F)(F)F)cn1)C(=O)c1ccc2nc(N)c3cnn(C)c3c2c1 [Example 126, 4-amino-N′-(azetidine-1-carbonyl)-N′,1-dimethyl-N-((5-(trifluoromethyl)pyridin-2-yl)methyl)-1H-pyrazolo[4,3-c]quinoline-8-carbohydrazide]",< 1,45,< 100
"CN(C(=O)N1CC2CC2C1)N(Cc1ccc(C(F)(F)F)cn1)C(=O)c1ccc2nc(N)c3cnn(C)c3c2c1 (stereo not drawn) [Example 127, 4-amino-N′-(3-azabicyclo[3.1.0]hexane-3-carbonyl)-N′,1-dimethyl-N-((5-(trifluoromethyl)pyridin-2-yl)methyl)-1H-pyrazolo[4,3-c]quinoline-8-carbohydrazide]",1 to 5,228,< 100
"CN(C(=O)N1CC2CC1C2)N(Cc1ccc(C(F)(F)F)cn1)C(=O)c1ccc2nc(N)c3cnn(C)c3c2c1 [Example 128, 4-amino-N′-(2-azabicyclo[2.1.1]hexane-2-carbonyl)-N′,1-dimethyl-N-((5-(trifluoromethyl)pyridin-2-yl)methyl)-1H-pyrazolo[4,3-c]quinoline-8-carbohydrazide]",< 1,131,< 100

# Now from value to compound, other results behind:
EC50 [2] [nM],EC50 selectivity (SDMA assay) [2],SMILES,CC50 [1] [nM]
1 to 5,404,"CN(C(=O)c1ccncc1)N(Cc1ccc(C(F)(F)F)cn1)C(=O)c1ccc2nc(N)c3cnn(C)c3c2c1 [Example 113, 4-amino-N′,1-dimethyl-N′-(pyridine-4-carbonyl)-N-[[5-(trifluoromethyl)-2-pyridyl]methyl]pyrazolo[4,3-c]quinoline-8-carbohydrazide]",100 to 1000
< 1,34,"CN(C(=O)C1(F)CC1)N(Cc1ccc(C(F)(F)F)cn1)C(=O)c1ccc2nc(N)c3cnn(C)c3c2c1 [Example 117, 4-amino-N′-(1-fluorocyclopropanecarbonyl)-N′,1-dimethyl-N-[[5-(trifluoromethyl)-2-pyridyl]methyl]pyrazolo[4,3-c]quinoline-8-carbohydrazide]",< 100
< 1,156,"CN(C(=O)C(C)(C)C)N(Cc1ccc(C(F)(F)F)cn1)C(=O)c1ccc2nc(N)c3cnn(C)c3c2c1 [Example 119, 4-amino-N′,1-dimethyl-N′-pivaloyl-N-((5-(trifluoromethyl)pyridin-2-yl)methyl)-1H-pyrazolo[4,3-c]quinoline-8-carbohydrazide]",< 100
< 1,261,"CN(C(=O)C1CC1)N(Cc1ccc(F)cc1F)C(=O)c1ccc2nc(N)c3cnn(C)c3c2c1 [Example 122, 4-amino-N′-(cyclopropanecarbonyl)-N-(2,4-difluorobenzyl)-N′,1-dimethyl-1H-pyrazolo[4,3-c]quinoline-8-carbohydrazide]",< 100
< 1,39,"Cn1ncc2c(N)nc3ccc(C(=O)N(Cc4cn5cc(Cl)ccc5n4)N4CCCC4=O)cc3c21 [Example 123, 4-Amino-N-[(6-chloroimidazo[1,2-a]pyridin-2-yl)methyl]-1-methyl-N-(2-oxopyrrolidin-1-yl)pyrazolo[4,3-c]quinoline-8-carboxamide]",< 100
1 to 5,60,"CN1CCN(N(Cc2cn3ccc(Cl)cc3n2)C(=O)c2ccc3nc(N)c4cnn(C)c4c3c2)C1=O [Example 125, 4-Amino-N-[(7-chloroimidazo[1,2-a]pyridin-2-yl)methyl]-1-methyl-N-(3-methyl-2-oxo-imidazolidin-1-yl)pyrazolo[4,3-c]quinoline-8-carboxamide]",< 100
< 1,11,"CN(c1ncccn1)N(Cc1cn2cc(Cl)ccc2n1)C(=O)c1ccc2nc(N)c3cnn(C)c3c2c1 [Example 129, 4-amino-N-[(6-chloroimidazo[1,2-a]pyridin-2-yl)methyl]-N′,1-dimethyl-N′-pyrimidin-2-yl-pyrazolo[4,3-c]quinoline-8-carbohydrazide]",< 100
